Experimental data taken from PubChem BioAssay AID1259407 (Chemical Carcinogenesis Research Information System (CCRIS), 2018).
Active and inactive are the calls of the source. The rule behind the calls is not given here.

Test system: CCRIS mutagenicity, Ames/micronucleus/aberration tests
Assay: CCRIS mutagenicity studies
[1] = Test System: AMES SALMONELLA TYPHIMURIUM, Strain/Indicator: TA98, Metabolic Activation: NONE, Method: PREINCUBATION
[2] = Test System: AMES SALMONELLA TYPHIMURIUM, Strain/Indicator: TA98, Metabolic Activation: NONE, Method: STANDARD PLATE
[3] = Test System: AMES SALMONELLA TYPHIMURIUM, Strain/Indicator: TA98, Metabolic Activation: RAT, LIVER, S-9, AROCLOR 1254, Method: PREINCUBATION
[4] = Test System: AMES SALMONELLA TYPHIMURIUM, Strain/Indicator: TA100, Metabolic Activation: NONE, Method: PREINCUBATION
[5] = Test System: AMES SALMONELLA TYPHIMURIUM, Strain/Indicator: TA100, Metabolic Activation: NONE, Method: STANDARD PLATE
[6] = Test System: AMES SALMONELLA TYPHIMURIUM, Strain/Indicator: TA100, Metabolic Activation: RAT, LIVER, S-9, AROCLOR 1254, Method: PREINCUBATION

c1cc2ccc3cccc4ccc(c1)c2c34
mutagenic call (End Point: IN VITRO MICRONUCLEUS, Test System: CHO CELLS, Metabolic Activation: RAT, LIVER, S-9, AROCLOR 1254): inactive; negative | mutagenic call (End Point: IN VITRO MICRONUCLEUS, Test System: V79 CELLS, Metabolic Activation: NONE): inactive; negative | mutagenic call (Test System: AMES SALMONELLA TYPHIMURIUM, Strain/Indicator: TA97, Metabolic Activation: NONE, Method: STANDARD PLATE): inactive; negative | mutagenic call (Test System: AMES SALMONELLA TYPHIMURIUM, Strain/Indicator: TA97, Metabolic Activation: RAT, LIVER, S-9, AROCLOR 1254, Method: STANDARD PLATE): active; positive | mutagenic call (Test System: AMES SALMONELLA TYPHIMURIUM, Strain/Indicator: TA97, Metabolic Activation: RAT, LIVER, S-9, PCB, Method: STANDARD PLATE): active; positive | mutagenic call (Test System: AMES SALMONELLA TYPHIMURIUM, Strain/Indicator: TA97A, Metabolic Activation: RAT, LIVER, S-9, AROCLOR 1254, Method: STANDARD PLATE): active; positive | mutagenic call [1]: inactive; negative | mutagenic call [2]: inactive; negative | mutagenic call [3]: inactive; negative | mutagenic call (Test System: AMES SALMONELLA TYPHIMURIUM, Strain/Indicator: TA98, Metabolic Activation: RAT, LIVER, S-9, AROCLOR 1254, Method: STANDARD PLATE): inactive; negative | mutagenic call (Test System: AMES SALMONELLA TYPHIMURIUM, Strain/Indicator: TA98, Metabolic Activation: RAT, LIVER, S-9, PCB, Method: STANDARD PLATE): active; positive | mutagenic call (Test System: AMES SALMONELLA TYPHIMURIUM, Strain/Indicator: TA100, Metabolic Activation: MOUSE, LIVER, MICROSOMES, BENZO[E]PYRENE AND TCDD, Method: STANDARD PLATE): inactive; negative | mutagenic call [4]: inactive; negative | mutagenic call [5]: inactive; negative | mutagenic call [6]: inactive; negative | mutagenic call (Test System: AMES SALMONELLA TYPHIMURIUM, Strain/Indicator: TA100, Metabolic Activation: RAT, LIVER, S-9, PCB, Method: STANDARD PLATE): inactive; negative | mutagenic call (Test System: AMES SALMONELLA TYPHIMURIUM, Strain/Indicator: TA1537, Metabolic Activation: RAT, LIVER, S-9, AROCLOR 1254, Method: STANDARD PLATE): active; positive | mutagenic call (Test System: CHINESE HAMSTER OVARY, Strain/Indicator: CHO (HGPRT)/6-THIOGUANINE, Metabolic Activation: NONE, Method: STANDARD PLATE): inactive; negative | mutagenic call (Test System: CHINESE HAMSTER OVARY, Strain/Indicator: CHO (HGPRT)/6-THIOGUANINE, Metabolic Activation: RAT, LIVER, S-9, AROCLOR 1254, Method: STANDARD PLATE): inactive; negative | mutagenic call (Test System: CHINESE HAMSTER OVARY, Strain/Indicator: CHO-K1-BH4 (HGPRT)/6-THIOGUANINE, Metabolic Activation: NONE, Method: SUSPENSION/PLATE): inactive; negative | mutagenic call (Test System: CHINESE HAMSTER OVARY, Strain/Indicator: CHO-K1-BH4 (HGPRT)/6-THIOGUANINE, Metabolic Activation: S-9, Method: SUSPENSION/PLATE): inactive; negative | mutagenic call (Test System: CHINESE HAMSTER OVARY, Strain/Indicator: CHO-K1-BH4 (HGPRT), Metabolic Activation: NONE, Method: SUSPENSION/PLATE): inactive; negative | mutagenic call (Test System: CHINESE HAMSTER OVARY, Strain/Indicator: CHO-K1-BH4 (HGPRT), Metabolic Activation: RAT, LIVER, S-9, AROCLOR, Method: SUSPENSION/PLATE): inactive; negative | mutagenic call (Test System: E. COLI, Strain/Indicator: WP2 UVRA, Metabolic Activation: HAMSTER, LIVER, S-9, AROCLOR 1254, Method: STANDARD PLATE): inactive; negative | mutagenic call (Test System: E. COLI, Strain/Indicator: WP2 UVRA, Metabolic Activation: HAMSTER, LIVER, S-9, Method: STANDARD PLATE): inactive; negative | mutagenic call (Test System: E. COLI, Strain/Indicator: WP2 UVRA, Metabolic Activation: MOUSE, LIVER, S-9, AROCLOR 1254, Method: STANDARD PLATE): inactive; negative | mutagenic call (Test System: E. COLI, Strain/Indicator: WP2 UVRA, Metabolic Activation: MOUSE, LIVER, S-9, Method: STANDARD PLATE): inactive; negative | mutagenic call (Test System: E. COLI, Strain/Indicator: WP2 UVRA, Metabolic Activation: NONE, Method: STANDARD PLATE): inactive; negative | mutagenic call (Test System: E. COLI, Strain/Indicator: WP2 UVRA, Metabolic Activation: RAT, LIVER, S-9, AROCLOR 1254, Method: STANDARD PLATE): inactive; negative | mutagenic call (Test System: E. COLI, Strain/Indicator: WP2 UVRA, Metabolic Activation: RAT, LIVER, S-9, Method: STANDARD PLATE): inactive; negative | mutagenic call (Test System: MOUSE LYMPHOMA, Strain/Indicator: L5178Y (TK+/TK-), Metabolic Activation: NONE, Method: SUSPENSION/PLATE): inactive; negative | mutagenic call (Test System: MOUSE LYMPHOMA, Strain/Indicator: L5178Y (TK+/TK-), Metabolic Activation: RAT, LIVER, S-9, AROCLOR 1254, Method: SUSPENSION/PLATE): active; positive | mutagenic call (Test System: MOUSE LYMPHOMA, Strain/Indicator: L5178Y (TK+/TK-), Metabolic Activation: S-9, Method: SUSPENSION/PLATE): active; positive | mutagenic call (Test System: UDS RAT HEPATOCYTES, Strain/Indicator: BROMODEOXYURIDINE INCORP, Metabolic Activation: NONE, Method: FLOW CYTOMETRIC ANALYSIS): inactive; negative | mutagenic call (Test System: UDS RAT HEPATOCYTES, Strain/Indicator: THY INCORP, Metabolic Activation: NONE, Method: AUTORADIOGRAPHY): inactive; negative | mutagenic call (Test System: UDS RODENT HEPATOCYTES, Strain/Indicator: THY INCORP, Metabolic Activation: NONE, Method: AUTORADIOGRAPHY): inactive; negative | mutagenic call (Test System: UDS, Strain/Indicator: HEPG2/THYMIDINE INCORPORATION, Metabolic Activation: NONE, Method: AUTORADIOGRAPHY): inactive; negative

[Cl][Pt-2]([Cl])([Cl])([Cl])([Cl])[Cl]
mutagenic call (Test System: AMES SALMONELLA TYPHIMURIUM, Strain/Indicator: TA97A, Metabolic Activation: RAT, LIVER, S-9, PHENOBARBITAL AND 5,6-BENZOFLAVONE, Method: STANDARD PLATE): active; positive | mutagenic call (Test System: AMES SALMONELLA TYPHIMURIUM, Strain/Indicator: TA97A, Metabolic Activation: RAT, LIVER, S-9, PHENOBARBITAL AND BETA-NAPHTHOFLAVONE, Method: STANDARD PLATE): active; positive | mutagenic call [1]: inactive; negative | mutagenic call [2]: active; positive | mutagenic call [3]: active; positive | mutagenic call (Test System: AMES SALMONELLA TYPHIMURIUM, Strain/Indicator: TA98, Metabolic Activation: RAT, LIVER, S-9, PHENOBARBITAL AND 5,6-BENZOFLAVONE, Method: STANDARD PLATE): active; positive | mutagenic call (Test System: AMES SALMONELLA TYPHIMURIUM, Strain/Indicator: TA98, Metabolic Activation: RAT, LIVER, S-9, PHENOBARBITAL AND BETA-NAPHTHOFLAVONE, Method: STANDARD PLATE): active; positive | mutagenic call [4]: inactive; negative | mutagenic call [5]: active; positive | mutagenic call [6]: inactive; negative | mutagenic call (Test System: AMES SALMONELLA TYPHIMURIUM, Strain/Indicator: TA100, Metabolic Activation: RAT, LIVER, S-9, PHENOBARBITAL AND 5,6-BENZOFLAVONE, Method: STANDARD PLATE): active; positive | mutagenic call (Test System: AMES SALMONELLA TYPHIMURIUM, Strain/Indicator: TA100, Metabolic Activation: RAT, LIVER, S-9, PHENOBARBITAL AND BETA-NAPHTHOFLAVONE, Method: STANDARD PLATE): active; positive | mutagenic call (Test System: AMES SALMONELLA TYPHIMURIUM, Strain/Indicator: TA102, Metabolic Activation: NONE, Method: STANDARD PLATE): active; positive | mutagenic call (Test System: AMES SALMONELLA TYPHIMURIUM, Strain/Indicator: TA102, Metabolic Activation: RAT, LIVER, S-9, PHENOBARBITAL AND 5,6-BENZOFLAVONE, Method: STANDARD PLATE): active; positive | mutagenic call (Test System: AMES SALMONELLA TYPHIMURIUM, Strain/Indicator: TA102, Metabolic Activation: RAT, LIVER, S-9, PHENOBARBITAL AND BETA-NAPHTHOFLAVONE, Method: STANDARD PLATE): active; positive
